{"source": "paper PMC11184559", "about": "“Identification and Validation of Compounds Targeting Leishmania major Leucyl-Aminopeptidase M17” (ACS Infectious Diseases, 2024)", "key": {"rLmLAP": {"target": "rLmLAP (Leishmania major, UniProt Q7KF27)", "sequence (Q7KF27 entry or part of it)": "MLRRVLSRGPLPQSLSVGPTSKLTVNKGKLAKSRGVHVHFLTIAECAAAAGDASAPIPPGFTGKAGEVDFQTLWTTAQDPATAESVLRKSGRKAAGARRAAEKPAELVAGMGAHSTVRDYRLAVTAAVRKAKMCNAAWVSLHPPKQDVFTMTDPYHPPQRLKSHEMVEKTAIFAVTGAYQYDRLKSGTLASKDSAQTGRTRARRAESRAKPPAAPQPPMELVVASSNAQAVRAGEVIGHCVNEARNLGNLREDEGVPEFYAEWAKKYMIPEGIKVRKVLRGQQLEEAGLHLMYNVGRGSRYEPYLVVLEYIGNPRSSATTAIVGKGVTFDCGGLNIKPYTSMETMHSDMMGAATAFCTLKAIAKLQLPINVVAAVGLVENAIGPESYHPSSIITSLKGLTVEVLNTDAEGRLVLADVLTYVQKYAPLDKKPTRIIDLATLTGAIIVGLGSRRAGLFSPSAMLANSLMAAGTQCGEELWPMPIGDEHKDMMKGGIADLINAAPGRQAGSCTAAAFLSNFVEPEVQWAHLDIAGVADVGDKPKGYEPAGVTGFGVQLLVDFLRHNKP", "assay": "RapidFire-MS aminopeptidase activity assay: inhibition of rLmLAP (LSTVIVR substrate)", "format": "biochemical", "conditions": "for IC50: RapidFire-MS, 5 nM enzyme, 10 μM LSTVIVR, 20 min preincubation, 0.195-100 μM, mean ± standard error (n = 3)", "method": "Assays were carried out as previously described,[24] with some differences indicated below. The reaction mix consisted of 0 nM (control) and 30 nM rLmLAP in 1× PBS, pH 7.0, 0.005% (v/v) NP-40, plus 7.5 μL of LSTVIVR substrate peptide in the same buffer. For product quantification, the peak areas of the LSTVIVR peptide were integrated with respect to the internal standard LSTVIVR* peptide. The C-terminal arginine was chosen because this amino acid is amenable to isotopic labeling.[45]\nrLmLAP was assayed at 5 nM with 10 μM (1× appKM) of LSTVIVR substrate peptide. The enzyme was preincubated with bestatin or DMSO for 20 min. Bestatin was prepared at 10 concentrations in DMSO, covering the range from 0.39 to 100 μM. […] The remaining experimental conditions were maintained, as described above.\nA high-throughput screen was conducted against rLmLAP using 3,383 compounds with known protease inhibitor motifs. The compounds were dispensed onto plates using an ECHO 550 acoustic dispenser (Labcyte, Sunnyvale, CA). The enzyme was assayed at 5 nM with 10 μM (1× appKM) LSTVIVR substrate for 60 min. Before adding the substrate, the enzyme was preincubated with 45 nL of the compounds or DMSO for 20 min. Compounds, dissolved in DMSO, were tested at 30 μM. […] No replicates were performed for each inhibitor in this experiment. The remaining experimental conditions were kept constant as described above. The ActivityBase program from IDBS provider (https://www.idbs.com) was used to process and analyze the data. Selection criteria for potential inhibitors in this screen required an inhibition percentage greater than the mean (calculated from the inhibition percentages of all the inhibitors) plus three standard deviations (SD). All compounds were purchased commercially and are >95% pure by HPLC.\nTo obtain IC50 data for screen-detected rLmLAP inhibitors at a single concentration, ten-point concentration–response curves were generated for selected inhibitors showing greater than mean ±3 SD inhibition. The curves were prepared in 384-well plates with a maximum concentration of 100 μM and 1:2 serial dilutions in DMSO (0.195–100 μM) using an ECHO 550 acoustic dispenser. All other experimental conditions were as described above for RapidFire-MS optimization. Three replicates of each concentration of inhibitor were evaluated. The IC50 value was calculated by nonlinear fitting of a four-parameter logistic function to the experimental data. Curve fitting and IC50 calculations were performed using IDBS ActivityBase XE version 9.2.0.106. Inhibitory activity was determined using the peak area ratio, calculated as the reaction product (STVIVR) divided by its internal standard (*LSTVIVR). The peak area ratio of the reaction without enzyme was defined as 100% inhibitory activity, and that of the complete reaction mixture was defined as 0% inhibitory activity. At least three replicates were generated for each hit compound."}, "[1]": {"system": "L. donovani intracellular amastigotes", "assay": "Leishmania donovani intracellular (intramacrophage) assay, single concentration", "format": "cell-based", "conditions": "Leishmania donovani, Macrophage, 96 h, intracellular amastigotes in macrophages, Hoechst imaging, read-out: Inhibition of L. donovani proliferation (%)", "method": "The effect of the compounds selected as inhibitors of rLmLAP on the proliferation of L. donovani amastigotes was evaluated at a concentration of 50 μM. Macrophage cultures (ECACC, catalog number: 88081201) were used as host cells. Parasites were incubated with 4.27× 10^7 macrophages, at a multiplicity of infection (MOI) of 5, at 37 °C with 5% CO2, overnight in DMEM medium supplemented with 4.5 g/L glucose and glutamine and 10% FBS, in a Millicell HY T-600 three-layer culture flask (Merck Millipore, Solna, Sweden). […] Macrophages were incubated for another 24 h in the above conditions with 133 μL of fresh DMEM medium prewarmed at 37 °C and supplemented with 10% FBS to obtain a high count of intracellular amastigotes.\nForty-two hours after macrophage infection, compounds (50 μM, 250 nL in DMSO) were dispensed using LabCyte ECHO into each well of 384-well dark flat bottom plates (Corning, New York, USA). The plates were incubated at 37 °C, 5% CO2, for 4 h (without compounds, with DMSO, to determine the initial level of infection) and for 96 h (with and without compounds)."}}, "note": "Values joined by “and” are separate entries in the source; they are usually repeats but may differ in a detail not shown here. Equal entries are not always repeated.", "data": [{"smiles": "CC(C)C[C@H](NC(=O)[C@@H](O)[C@H](N)Cc1ccccc1)C(=O)O", "note": "[Bestatin, reference compound]", "values": [{"measurement": "IC50", "setting": "rLmLAP", "result": "6 µM and 6.1 µM"}]}, {"smiles": "Cc1cc(C(=O)N(Cc2ccco2)Cc2cc3ccc(Cl)cc3nc2N2CCCC2)n(C)n1", "note": "[DDD00092594]", "values": [{"measurement": "IC50", "setting": "rLmLAP", "result": "36.3 ± 3.3", "unit": "µM"}, {"measurement": "inhibition at 50 µM", "setting": "[1]", "result": "19.9 ± 1.3", "unit": "%"}]}, {"smiles": "N#CC(=Cc1cn(Cc2ccc(C(=O)O)o2)c2ccccc12)c1ccc(F)cc1", "note": "[DDD00092624]", "values": [{"measurement": "IC50", "setting": "rLmLAP", "result": "35.2 ± 3.2", "unit": "µM"}, {"measurement": "inhibition at 50 µM", "setting": "[1]", "result": "7 ± 1", "unit": "%"}]}, {"smiles": "N#CC(=Cc1cn(Cc2ccc(C(=O)O)o2)c2ccccc12)c1nc2ccccc2[nH]1", "note": "[DDD00092640]", "values": [{"measurement": "IC50", "setting": "rLmLAP", "result": "20.2 ± 1.1", "unit": "µM"}, {"measurement": "inhibition at 50 µM", "setting": "[1]", "result": 0, "unit": "%"}]}, {"smiles": "CS(=O)(=O)Nc1cc2ccccc2cc1C(=O)O", "note": "[DDD00095117]", "values": [{"measurement": "IC50", "setting": "rLmLAP", "result": "19 ± 1", "unit": "µM"}, {"measurement": "inhibition at 50 µM", "setting": "[1]", "result": 0, "unit": "%"}]}, {"smiles": "COc1ccc(S(=O)(=O)N2Cc3ccccc3CC2C(=O)O)cc1", "note": "(stereo not shown) [DDD00095849]", "values": [{"measurement": "IC50", "setting": "rLmLAP", "result": "60 ± 5", "unit": "µM"}, {"measurement": "inhibition at 50 µM", "setting": "[1]", "result": "12.7 ± 1.5", "unit": "%"}]}, {"smiles": "Cc1ccc(C(=O)O)cc1S(=O)(=O)Nc1cccc(C2SCCS2)c1", "note": "[DDD00096698]", "values": [{"measurement": "IC50", "setting": "rLmLAP", "result": "50 ± 4", "unit": "µM"}, {"measurement": "inhibition at 30 µM", "setting": "rLmLAP; single-point high-throughput screen at 30 μM, read-out: Inhibition of rLmLAP in the screening", "result": "~65", "unit": "%"}, {"measurement": "inhibition at 50 µM", "setting": "[1]", "result": 0, "unit": "%"}]}, {"smiles": "O=C(O)c1ccc(-c2nccs2)s1", "note": "[DDD00097905]", "values": [{"measurement": "IC50", "setting": "rLmLAP", "result": "37.1 ± 3.3", "unit": "µM"}, {"measurement": "inhibition at 50 µM", "setting": "[1]", "result": 0, "unit": "%"}]}]}
